pIC50: −log10 of the molar value.
Species: Mus musculus
Experiment: Ability to inhibit tumor necrosis factor-alpha (TNF-alpha) production in mouse macrophages stimulated with LPS
Format: functional

`Nc1nc(N2CCCCC2)c2ccccc2n1` gave a pIC50 of less than 4.00.
`O=C(c1ccccc1)N1CCC(c2ncnc3ccccc23)CC1` gave a pIC50 of 5.85.
Work on `Nc1nc(C2CCN(C(=O)Cc3ccccc3)CC2)c2ccccc2n1` yielded a pIC50 of 5.70.
Work on `CN1CCC(c2nc(N)nc3ccccc23)CC1` yielded a pIC50 of less than 4.00.
With `COc1ccc(Cc2cc(C3CCN(C(=O)c4ccc(Cl)c(Cl)c4)CC3)nc(N)n2)cc1` the pIC50 was 6.15.
`Cc1cc(C2CCN(C(=O)c3ccccc3)CC2)nc(N)n1` showed a pIC50 of 5.05.
For `COc1ccc(Cc2cc(C3CCN(C(=O)Cc4ccc(Cl)c(Cl)c4)CC3)nc(N)n2)cc1`, the pIC50 was 5.68.
For `COc1ccc(Cc2cc(C3CCN(C(=O)c4cccc(OC)c4)CC3)nc(N)n2)cc1`, the pIC50 was 5.92.
In the case of `COc1ccc(Cc2cc(C3CCN(C(=O)Cc4ccc(Cl)cc4)CC3)nc(N)n2)cc1`, the pIC50 was 5.62.
`Nc1nc(C2CCN(C(=O)CCc3ccccc3)CC2)c2ccccc2n1` gave a pIC50 of 5.20.
In the case of `Nc1nc(C2CCN(C3CCCCC3)CC2)c2ccccc2n1`, the pIC50 was 4.28.
For `Nc1nc(C2CCN(Cc3ccccc3)CC2)c2ccccc2n1`, the pIC50 was 4.80.
In the case of `Nc1nc(Nc2ccccc2)c2ccccc2n1`, the pIC50 was less than 4.00.
`CCCCCCCC(=O)N1CCC(c2cc(Cc3ccc(OC)cc3)nc(N)n2)CC1` was tested, and the pIC50 was 5.72.
Work on `COc1ccc(Cc2cc(C3CCN(C(=O)c4cc(OC)cc(OC)c4)CC3)nc(N)n2)cc1` yielded a pIC50 of 6.00.
Work on `Nc1nc(C2CCNCC2)c2ccccc2n1` yielded a pIC50 of 4.29.
For `COc1ccc(Cc2cc(C3CCN(C(=O)Cc4ccc(OC)c(OC)c4)CC3)nc(N)n2)cc1`, the pIC50 was 5.92.
`COc1ccc(Cc2cc(C3CCN(C(=O)c4ccc5c(c4)OCO5)CC3)nc(N)n2)cc1` was tested, and the pIC50 was 6.22.
For `O=C(c1ccccc1)N1CCC(c2nc(Cl)nc3ccccc23)CC1`, the pIC50 was 5.85.
With `COc1ccc(CC(=O)N2CCC(c3cc(Cc4ccc(OC)cc4)nc(N)n3)CC2)cc1` the pIC50 was 5.77.
With `CC(=O)N1CCC(c2nc(N)nc3ccccc23)CC1` the pIC50 was 5.44.
`Nc1nc(C2CCN(CCc3ccccc3)CC2)c2ccccc2n1` showed a pIC50 of less than 4.00.
In the case of `O=C(c1ccccc1)N1CCC(c2nc(O)nc3ccccc23)CC1`, the pIC50 was 4.70.
For `COc1ccc(Cc2cc(C3CCN(C(=O)c4cccc(OC)c4OC)CC3)nc(N)n2)cc1`, the pIC50 was 6.05.
With `COc1ccc(Cc2cc(C3CCN(C(=O)C(C)(C)C)CC3)nc(N)n2)cc1` the pIC50 was 5.25.
Work on `COc1ccc(Cc2cc(C3CCN(C(=O)c4ccc([N+](=O)[O-])cc4)CC3)nc(N)n2)cc1` yielded a pIC50 of 6.15.
`COc1ccc(Cc2cc(C3CCN(C(=O)c4ccccc4OC)CC3)nc(N)n2)cc1` gave a pIC50 of 5.44.
Compound `Nc1nc(C2CCN(C(=O)c3ccccc3)CC2)c2ccccc2n1` has a pIC50 of 5.85.
Compound `COc1ccc(Cc2cc(C3CCN(C(=O)c4ccccc4)CC3)nc(N)n2)cc1` has a pIC50 of 5.85.
For `COc1ccc(Cc2cc(C3CCN(C(=O)Cc4ccccc4)CC3)nc(N)n2)cc1`, the pIC50 was 5.68.
Compound `COc1ccc(Cc2cc(C3CCN(C(=O)Cc4ccc5c(c4)OCO5)CC3)nc(N)n2)cc1` has a pIC50 of 5.74.
`Nc1nc(C2CCN(C(=O)c3ccc4c(c3)OCO4)CC2)c2ccccc2n1` gave a pIC50 of 5.35.
In the case of `CCCCC(=O)N1CCC(c2nc(N)nc3ccccc23)CC1`, the pIC50 was 5.52.
Work on `CCC(=O)N1CCC(c2cc(Cc3ccc(OC)cc3)nc(N)n2)CC1` yielded a pIC50 of 5.31.
Compound `COc1ccc(-c2c(C)nc(N)nc2C2CCN(C(=O)c3ccccc3)CC2)cc1` has a pIC50 of 5.01.
With `CCCC(=O)N1CCC(c2cc(Cc3ccc(OC)cc3)nc(N)n2)CC1` the pIC50 was 5.14.
Work on `COc1ccc(Cc2cc(C3CCN(C(C)=O)CC3)nc(N)n2)cc1` yielded a pIC50 of 5.21.
`CN1CCN(c2nc(N)nc3ccccc23)CC1` was tested, and the pIC50 was less than 4.00.
Compound `COc1ccc(Cc2cc(C3CCN(C(=O)c4ccc(OC)c(OC)c4)CC3)nc(N)n2)cc1` has a pIC50 of 6.05.
With `COc1ccc(Cc2cc(C3CCN(C(=O)c4ccccc4[N+](=O)[O-])CC3)nc(N)n2)cc1` the pIC50 was 5.77.
With `COc1ccc(Cc2cc(C3CCN(C(=O)c4ccc(OC)cc4)CC3)nc(N)n2)cc1` the pIC50 was 6.30.
With `COc1ccc(Cc2cc(C3CCN(C(=O)c4cccc([N+](=O)[O-])c4)CC3)nc(N)n2)cc1` the pIC50 was 6.10.
Work on `COc1ccc(Cc2cc(C3CCN(C(=O)c4ccc(Cl)cc4)CC3)nc(N)n2)cc1` yielded a pIC50 of 6.22.
`Nc1nc(-c2ccccc2)cc(C2CCN(C(=O)c3ccccc3)CC2)n1` gave a pIC50 of 5.29.
Compound `Nc1nc(C2CCN(C(=O)C3CCCCC3)CC2)c2ccccc2n1` has a pIC50 of 5.60.
`CCCCCC(=O)N1CCC(c2cc(Cc3ccc(OC)cc3)nc(N)n2)CC1` showed a pIC50 of 5.82.
